In patent US11028068B2, “Somatostatin modulators and uses thereof” (Crinetics Pharmaceuticals, Inc., priority 2017, dated 2021) one finds EC50 data, which are given here for twelve molecules.

T1 sequence (P30874 whole entry): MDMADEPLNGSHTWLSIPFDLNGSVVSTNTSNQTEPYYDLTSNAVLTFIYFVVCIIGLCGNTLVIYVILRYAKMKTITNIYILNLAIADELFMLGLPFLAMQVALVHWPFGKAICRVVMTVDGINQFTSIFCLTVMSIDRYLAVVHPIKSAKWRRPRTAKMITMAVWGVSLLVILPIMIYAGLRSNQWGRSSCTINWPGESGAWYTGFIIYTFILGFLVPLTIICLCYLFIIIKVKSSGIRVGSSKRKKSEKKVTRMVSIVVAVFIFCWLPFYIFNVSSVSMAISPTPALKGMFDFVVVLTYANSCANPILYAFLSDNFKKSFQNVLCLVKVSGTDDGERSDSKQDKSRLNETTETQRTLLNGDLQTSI

This assay concerns the target T1, human somatostatin receptor subtype 2 (Homo sapiens, UniProt P30874).
T1 construct: expressed in transfected cells; host or cells: CHO (Chinese hamster ovary) cells, cultured under G-418 selection
Put plainly: cAMP assay (inhibition of cAMP activities via sst2 receptor). It counts as cell-based. The settings on record: CHO cells expressing the human somatostatin receptor subtype 2, forskolin. The text has this:
General overview: All five SSTR subtypes are Gi coupled G-protein coupled receptors (GPCRs) that lead to decreases in intracellular cyclic AMP (cAMP) when activated by an agonist. Therefore, measurement of intracellular cAMP levels can be used to assess whether compounds of the invention are agonists of SSTR subtypes (John Kelly, Troy Stevens, W. Joseph Thompson, and Roland Seifert, Current Protocols in Pharmacology, 2005,2.2.1-2.2). One example of an intracellular cAMP assay is described below.
One day prior to the assay, 40,000 Chinese hamster ovary (CHO) cells expressing the human somatostatin receptor subtype 2 are plated in each well of a 96-well tissue culture plate in DM-MEM growth media (Gibco) with the following additives: 10% fetal bovine serum (Gibco), 100 U/mL penicillin (Gibco), 100 ug/mL streptomycin (Gibco), 10 mM HEPES (Gibco), 1.2 mM sodium hydroxide, 0.5 mg/mL G-418 (Gibco)). The cells are cultured overnight at 37° C., 5% CO2 and 95% humidity. On the day of the assay, the media is aspirated and the cells are washed with 1X Dulbecco's phosphate buffered saline (Gibco). Next, 5 μL of assay buffer (1× Earle's Balanced Salt Solution (Gibco), 5 mM MgCl2, 10 mM HEPES, 0.1% bovine serum albumin, 0.2 mM 3-Isobutyl-1-methylxanthine (IBMX, Biomol Research Labs)) and forskolin is added. Various dilutions of the compounds of the invention are prepared in assay buffer and 5 μL of the dilutions are added to the cultured cells and incubated for 15 minutes at 37° C. (the final concentration of the compounds of the invention are typically 0-10,000 nM). 10 μL of lysis buffer (HRTF cAMP kit, Cisbio) containing cAMP detection and visualization antibodies are added and the assay is allowed incubate for 1-24 hours at room temperature. The intracellular cAMP concentrations are then measured using a commercially available detection kit (for example, the cAMP HTRF kit, Cisbio). The measured intracellular cAMP concentrations are plotted vs. the concentration of the compounds of the invention and the EC50 of the compounds are calculated using standard methods.
Background: Changes in cAMP serve as a functional read-out for many G protein-coupled receptors.
`CN(C[C@@H]1CCCN1)C(=O)c1c(N2CCOCC2)cnc2ccc(-c3cccc(O)c3)nc12` [Compound 3-12, 6-(3-hydroxyphenyl)-N-methyl-3-(morpholin-4-yl)-N-[(2S)-pyrrolidin-2-ylmethyl]-1,5-naphthyridine-4-carboxamide] had an EC50 of 0.1 to 1 µM.

In turn, `CN(C[C@@H]1CCCN1)C(=O)c1c(N2CCC(CO)C2)cnc2ccc(-c3cccc(O)c3)nc12` (stereo partly drawn) [Compound 3-17, 3-[3-(hydroxymethyl)pyrrolidin-1-yl]-6-(3-hydroxyphenyl)-N-methyl-N-[(2S)-pyrrolidin-2-ylmethyl]-1,5-naphthyridine-4-carboxamide] showed an EC50 of 0.1 to 1 µM.

With `CC#Cc1cnc2ccc(-c3cccc(O)c3)nc2c1C(=O)N(C)C[C@@H]1CCCN1` [Compound 3-18, 6-(3-hydroxyphenyl)-N-methyl-3-(prop-1-yn-1-yl)-N-((2S) -pyrrolidin-2-ylmethyl)-1,5-naphthyridine-4-carboxamide], the EC50 is 0.1 to 1 µM.

With `CN(C[C@@H]1CCCN1)C(=O)c1c(N2CCO[C@H](c3ccccc3)C2)cnc2ccc(-c3cc(F)cc(C#N)c3)nc12` [Compound 3-42, 6-(3-cyano-5-fluorophenyl)-N-methyl-3-[(2R)-2-phenylmorpholin-4-yl]-N-[(2S) -pyrrolidin-2-ylmethyl]-1,5-naphthyridine-4-carboxamide], the EC50 fell in the range of 0.1 to 1 µM.

The molecule `CN(C[C@@H]1CCCN1)C(=O)c1c(N2CCO[C@@H](c3ccccc3)C2)cnc2ccc(-c3cc(F)cc(C#N)c3)nc12` [Compound 3-47, 6-(3-cyano-5-fluorophenyl)-N-methyl-3-[(2S)-2-phenylmorpholin-4-yl]-N-[(2S) -pyrrolidin-2-ylmethyl]-1,5-naphthyridine-4-carboxamide] had an EC50 of 0.1 to 1 µM.

Regarding `Cc1cc(F)cc(-c2cnc3ccc(-c4cccnc4)cc3c2C(=O)N(C)C[C@@H]2CCCN2)c1` [Compound 3-48, 3-(3-fluoro-5-methylphenyl)-N-methyl-6-(pyridin-3-yl)-N-[(2S)-pyrrolidin-2-ylmethyl]quinoline-4-carboxamide], the EC50 was less than 0.1 µM.

`CN(C[C@@H]1CCCN1)C(=O)c1c(N2CC(C)(C)OC(C)(C)C2)cnc2ccc(-c3cc(F)cc(C#N)c3)nc12` [Compound 3-49, 6-(3-cyano-5-fluorophenyl)-N-methyl-N-[(2S)-pyrrolidin-2-ylmethyl]-3-(2,2,6,6-tetramethylmorpholin-4-yl)-1,5-naphthyridine-4-carboxamide] gave an EC50 of 0.1 to 1 µM.

Turning to `CN(C[C@@H]1CCCN1)C(=O)c1c(N2CCc3cc(C(F)(F)F)ccc32)cnc2ccc(-c3cc(F)cc(C#N)c3)nc12` [Compound 3-54, 6-(3-cyano-5-fluorophenyl)-N-methyl-N-[(2S)-pyrrolidin-2-ylmethyl]-3-[5-(trifluoromethyl)-2,3-dihydro-1H-indol-1-yl]-1,5-naphthyridine-4-carboxamide], the EC50 is 0.1 to 1 µM.

In turn, `CN(C[C@@H]1CCCN1)C(=O)c1c(N2Cc3ccc(C(F)(F)F)cc3C2)cnc2ccc(-c3cc(F)cc(C#N)c3)nc12` [Compound 3-55, 6-(3-cyano-5-fluorophenyl)-N-methyl-N-[(2S)-pyrrolidin-2-ylmethyl]-3-[5-(trifluoromethyl)-2,3-dihydro-1H-isoindol-2-yl]-1,5-naphthyridine-4-carboxamide] yielded an EC50 of 0.1 to 1 µM.

Molecule `CN(C[C@@H]1CCCN1)C(=O)c1c(N2CC3CC3C2)cnc2ccc(-c3cc(F)cc(C#N)c3)nc12` (stereo partly drawn) [Compound 3-69, 3-{3-azabicyclo[3.1.0]hexan-3-yl}-6-(3-cyano-5-fluorophenyl)-N-methyl-N-[(2S) -pyrrolidin-2-ylmethyl]-1,5-naphthyridine-4-carboxamide] showed an EC50 of 0.1 to 1 µM.

For `CN(C[C@@H]1CCCN1)C(=O)c1c(N2CC3CCC(C2)O3)cnc2ccc(-c3cc(F)cc(C#N)c3)nc12` [Compound 3-70, 6-(3-cyano-5-fluorophenyl)-N-methyl-3-{8-oxa-3-azabicyclo[3.2.1]octan-3-yl}-N-[(2S) -pyrrolidin-2-ylmethyl]-1,5-naphthyridine-4-carboxamide], the EC50 was 0.1 to 1 µM.

`CN(C[C@@H]1CCCN1)C(=O)c1c(N2CCC(F)(F)C2)cnc2ccc(-c3cc(F)cc(C#N)c3)nc12` [Compound 3-76, 6-(3-cyano-5-fluorophenyl)-3-(3,3-difluoropyrrolidin-1-yl)-N-methyl-N-[(2S)-pyrrolidin-2-ylmethyl]-1,5-naphthyridine-4-carboxamide] displayed an EC50 of 0.1 to 1 µM.

Usually EC50 stands for the concentration that produces a half-maximal response. Low readings indicate higher potency in that assay, high ones lower potency in that assay.
